Experimental data taken from paper PMC10381533, “Inhibitory Effects of the Fungal Pigment Rubiginosin C on Hyphal and Biofilm Formation in Candida albicans and Candida auris” (Journal of Fungi, 2023).

What was measured:
[1] = tested on: preformed S. aureus biofilm; assay: Dispersal effect on preformed S. aureus biofilm; format: cell-based, Staphylococcus aureus; settings: 250 µg/mL
Procedure: compounds (250–2 μg/mL) in CASO with 4% glucose broth. The inhibition of biofilm formation was evaluated by staining with 150 μL of 0.1% crystal violet (CV; Thermo Fisher) following previously established protocols. In the next step, the supernatant of the 96-well plate was discarded and the wells were rinsed once with PBS buffer. The remaining biofilms were stained at room temperature for 15 min, rinsed three times with PBS buffer, and finally dissolved in 150 μL ethanol (95%). The absorbance of the resulting solution at 530 nm was quantified using a plate reader (Synergy 2, BioTek). Methanol (2.5%) and microporenic acid A (MAA) (250–2 μg/mL) were used as negative and positive controls. Standard deviations (SD) of two repeats with duplicates were 10% or less. […]
Table S2: Selected azaphilones were tested against the formation of biofilm of S. aureus, P. aeruginosa as well as C. auris and dispersal effect on preformed biofilm of S. aureus compared to solvent control (= 0%), respectively. SDs are shown as ±SD.
Compounds Strains Concentrations [µg/mL] […]

[2] = tested on: C. auris [DSM 21092] biofilm; assay: Effects on C. auris biofilms of various ages (2 h, 12 h, 24 h), crystal violet; format: cell-based, Candida auris
Procedure: The turbidity of C. auris [DSM 21092] dispersion was measured at 280 nm and diluted to the turbidity of a 0.5 McFarland standard. C. auris was cultured in RPMI 1640 medium supplemented with […] MOPS (37 °C, 150 rpm, 2 h, 12 h, 24 h) in 96-well non-tissue microtiter plates (Falcon no. 351172, Thermo Fisher Scientific). After incubation, C. auris biofilms of various ages (2 h, 12 h, 24 h) were washed once by PBS buffer and treated (37 °C, 150 rpm, 24 h) with serial diluted Rub C (250–0.02 μg/mL) in fresh RPMI 1640 medium supplemented with […] MOPS. Samples of each time point were further processed and evaluated by a microtiter plate reader, as described above.

| Structure (SMILES) | dispersal effect on preformed biofilm of S. aureus compared to solvent control (= 0%) [1] [%] | biofilm attachment compared to solvent control (=0%) ([2]; 2 h old C. auris biofilm, 2 µg/mL) [%] | biofilm attachment compared to solvent control (=0%) ([2]; 2 h old C. auris biofilm, 3.9 µg/mL) [%] | biofilm attachment compared to solvent control (=0%) ([2]; 2 h old C. auris biofilm, 7.8 µg/mL) [%] | biofilm attachment compared to solvent control (=0%) ([2]; 2 h old C. auris biofilm, 15.6 µg/mL) [%] | biofilm attachment compared to solvent control (=0%) ([2]; 2 h old C. auris biofilm, 31.3 µg/mL) [%] | biofilm attachment compared to solvent control (=0%) ([2]; 2 h old C. auris biofilm, 62.5 µg/mL) [%] | biofilm attachment compared to solvent control (=0%) ([2]; 12 h old C. auris biofilm, 2 µg/mL) [%] | biofilm attachment compared to solvent control (=0%) ([2]; 12 h old C. auris biofilm, 3.9 µg/mL) [%] | biofilm attachment compared to solvent control (=0%) ([2]; 12 h old C. auris biofilm, 7.8 µg/mL) [%] | biofilm attachment compared to solvent control (=0%) ([2]; 12 h old C. auris biofilm, 15.6 µg/mL) [%] | biofilm attachment compared to solvent control (=0%) ([2]; 12 h old C. auris biofilm, 31.3 µg/mL) [%] | biofilm attachment compared to solvent control (=0%) ([2]; 12 h old C. auris biofilm, 62.5 µg/mL) [%] | biofilm attachment compared to solvent control (=0%) ([2]; 24 h old C. auris biofilm, 2 µg/mL) [%] | biofilm attachment compared to solvent control (=0%) ([2]; 24 h old C. auris biofilm, 3.9 µg/mL) [%] | biofilm attachment compared to solvent control (=0%) ([2]; 24 h old C. auris biofilm, 7.8 µg/mL) [%] | biofilm attachment compared to solvent control (=0%) ([2]; 24 h old C. auris biofilm, 15.6 µg/mL) [%] | biofilm attachment compared to solvent control (=0%) ([2]; 24 h old C. auris biofilm, 31.3 µg/mL) [%] | biofilm attachment compared to solvent control (=0%) ([2]; 24 h old C. auris biofilm, 62.5 µg/mL) [%] |
| --- | --- | --- | --- | --- | --- | --- | --- | --- | --- | --- | --- | --- | --- | --- | --- | --- | --- | --- | --- |
| CC(=O)OC/C=C/C1=CC2=C(CO1)C(=O)[C@@](C)(OC(=O)c1c(C)cc(O)cc1O)C(=O)/C2=C\C=C\C1=CC2=C(CO1)C(=O)[C@@](C)(OC(=O)c1c(C)cc(O)cc1O)[C@@H](O)C2 [Rut B, rutilin B] | 51 ±8 |  |  |  |  |  |  |  |  |  |  |  |  |  |  |  |  |  |  |
| C[C@@H]1[C@H](O)[C@@H](C)/C=C/C=C/CC/C=C/C=C/C=C/C=C/C(O[C@H]2O[C@H](C)[C@@H](O)[C@H](N)[C@@H]2O)CC2O[C@](O)(CC(O)C(O)CCC(O)CC(O)CC(O)CC(=O)O[C@H]1C)CC(O)C2C(=O)O (stereo partly shown) [Nystatin, nystatin] |  | 84 ±25 | 39 ±10 | 58 ±16 | 53 ±10 | 50 ±10 | 47 ±8 | 96 ±12 | 64 ±12 | 49 ±10 | 43 ±6 | 41 ±9 | 45 ±8 | 93 ±28 | 48 ±2 | 51 ±9 | 49 ±5 | 50 ±10 | 46 ±5 |
